Source: patent US20230151106A1, “OFATUMUMAB FOR TREATING MS WHILE MAINTAINING SERUM IgG” (NOVARTIS AG, priority 2020, published 2023)

Tests used:
serum IgM = test: Serum IgM levels in ASCLEPIOS I/II (Pool C2); assay type: in vivo, human; conditions: any time post-baseline, FIG. 9
Procedure: In the present application serum Ig levels can preferably be determined by immunoturbidimetry. Preferably a Roche cobas® Analyzer was used, especially module c of the cobas® analyser.
(§1) Serum samples were preferably kept at 2-8° C. before measurement.
ASCLEPIOS I and II are double-blind, double-dummy, active comparator-controlled, parallel-group, innovative, adaptive design, multicentre trials. Patients were randomised (1:1) to receive either ofatumumab 20 mg sc injections every 4 weeks (after an initial loading regimen of 20 mg sc doses on Days 1, 7 and 14) or teriflunomide 14 mg orally once daily, for up to 30 months.

CD19+ B-cells = test: CD19+ B-cell depletion in ASCLEPIOS; assay type: in vivo, human
Procedure: ASCLEPIOS I and II are double-blind, double-dummy, active comparator-controlled, parallel-group, innovative, adaptive design, multicentre trials. Patients were randomised (1:1) to receive either ofatumumab 20 mg sc injections every 4 weeks (after an initial loading regimen of 20 mg sc doses on Days 1, 7 and 14) or teriflunomide 14 mg orally once daily, for up to 30 months. […] Patients aged 18-55 years with an Expanded Disability Status Scale (EDSS) score (according to Kurtzke, Neurology. 1983, Nov; 33(11): 1444-52) of 0-5.5 at screening who experienced ≥1 relapse in the past year or ≥2 relapses in the past 2 years or a positive gadolinium-enhancing (Gd+) MRI scan during the year before randomisation were included.

serum IgG = test: Serum IgG levels in ASCLEPIOS I/II (Pool C2)
Procedure: In the present application serum Ig levels can preferably be determined by immunoturbidimetry. Preferably a Roche cobas® Analyzer was used, especially module c of the cobas® analyser. In a preferred embodiment Ig levels can be determined by using a cobas® c 311 analyzer. It is further preferred that IgG measurements are carried out as described in the cobas® leaflet “IGG-2 Tina-quant IgG Gen. 2”, preferably version 11.0 dated 2016-02 and IgM measurements as described in the leaflet “IGM-2 Tina-quant IgM Gen. 2”, preferably version 13.0 dated 2018-11.
as §1
Patients were randomised (1:1) to receive either ofatumumab 20 mg sc injections every 4 weeks (after an initial loading regimen of 20 mg sc doses on Days 1, 7 and 14) or teriflunomide 14 mg orally once daily, for up to 30 months.
(§2) Serum IgG/IgM levels were monitored at baseline, Week (W) 4, W12 and every 12 weeks, see FIG. 1.

[1] = test system: multiple sclerosis patients; test: Infections in relation to IgM/IgG levels <LLN vs >=LLN in ofatumumab MS studies
Source text: as §2

[2] = test system: multiple sclerosis patients; conditions: in vivo; cited from earlier work
MS patients = conditions: cited from earlier work
IgG levels = test: Metanalysis of Example 1 versus Derfuss et al. (pooled OPERA), IgG levels; assay type: in vivo, human; conditions: in vivo
Source text: In a metanalysis, the results of Example 1 and the results obtained by Derfuss et al. were compared.

[3] = anytime during post baseline visit
[4] = Ofatumumab N=134, Teriflunomide N=214
[5] = after the last infusion, 51 patients from MS clinical studies

C/C(O)=C(\C#N)C(=O)Nc1ccc(C(F)(F)F)cc1 [teriflunomide]
patients with IgM levels on or above the LLN (serum IgM): > 90% | patients with CD19+ B-cells below LLN (CD19+ B-cells; Week 1): (2.0) % | patients with CD19+ B-cells below LLN, n/M (CD19+ B-cells; Week 1): 9/443 | patients with CD19+ B-cells below LLN (CD19+ B-cells; Week 2): (1.6) % | patients with CD19+ B-cells below LLN, n/M (CD19+ B-cells; Week 2): 7/437 | patients with CD19+ B-cells below LLN (CD19+ B-cells; Week 4): (3.2) % | patients with CD19+ B-cells below LLN, n/M (CD19+ B-cells; Week 4): 14/444 | patients with CD19+ B-cells below LLN (CD19+ B-cells; Week 12): (3.0) % | patients with CD19+ B-cells below LLN, n/M (CD19+ B-cells; Week 12): 13/439 | patients with CD19+ B-cells below LLN (CD19+ B-cells; Week 24): (2.1) % | patients with CD19+ B-cells below LLN, n/M (CD19+ B-cells; Week 24): 9/419 | patients with CD19+ B-cells below LLN (CD19+ B-cells; Week 36): (1.2) % | patients with CD19+ B-cells below LLN, n/M (CD19+ B-cells; Week 36): 5/408 | patients with CD19+ B-cells below LLN (CD19+ B-cells; Week 48): (1.3) % | patients with CD19+ B-cells below LLN, n/M (CD19+ B-cells; Week 48): 5/394 | patients with CD19+ B-cells below LLN (CD19+ B-cells; Week 60): (2.1) % | patients with CD19+ B-cells below LLN, n/M (CD19+ B-cells; Week 60): 8/382 | patients with CD19+ B-cells below LLN (CD19+ B-cells; Week 72): (1.0) % | patients with CD19+ B-cells below LLN, n/M (CD19+ B-cells; Week 72): 3/304 | patients with CD19+ B-cells below LLN (CD19+ B-cells; Week 84): (2.1) % | patients with CD19+ B-cells below LLN, n/M (CD19+ B-cells; Week 84): 4/195 | patients with CD19+ B-cells below LLN (CD19+ B-cells; Week 96): (0.8) % | patients with CD19+ B-cells below LLN, n/M (CD19+ B-cells; Week 96): 1/121 | patients with CD19+ B-cells below LLN (CD19+ B-cells; Week 108): (4.5) % | patients with CD19+ B-cells below LLN, n/M (CD19+ B-cells; Week 108): 3/67 | patients with CD19+ B-cells below LLN, n/M (CD19+ B-cells; Week 120): 0/16 | patients with B-cells below LLN (CD19+ B-cells; throughout the study Treatment epoch): up to 4.5% | change in mean serum IgG value from baseline (serum IgG; Week 96): -0.421 g/L | decrease in mean IgG value from baseline (serum IgG; Week 96): 4.1% | patients with IgG levels on or above the LLN (serum IgG; any time post-baseline, FIG. 9): > 77% | patients with IgG below LLN, n/N (serum IgG; [3]): 214/934 | proportion of patients with IgG below LLN (serum IgG; [3]): 22.9% | Infections observed after the first drop of IgG<LLN [1, 4]: 36.4% | Infections observed after the first drop of IgG<LLN, number of patients [1, 4]: 78 | patients who reported an infection post study drug discontinuation ([1]; among patients who discontinued treatment for Ig decline): 2 of 7

ocrelizumab: anti-CD20 monoclonal antibody with a humanized antibody backbone, approved for relapsing and primary progressive MS
approximate mean rate of reduction in serum Ig levels [2]: 3-4 % per year | infection rate, association with IgG, first value [2]: 6.50 /100PY | infection rate, association with IgG, second (vs) value [2]: 2.11 /100PY | infection rate, association with IgM, first value [2]: 3.66 /100PY | infection rate, association with IgM, second (vs) value [2]: 1.88 /100PY | median time for B-cell counts to return to either baseline or LLN (MS patients; [5]): 72 weeks | range of time for B-cell counts to return to either baseline or LLN (MS patients; [5]): 27-175 weeks | effect on total immunoglobulins (MS patients; in vivo): decrease in total immunoglobulins | malignancies compared to control groups (MS patients; in vivo): increased number of malignancies | patients whose B-cell counts rose to either baseline or LLN (MS patients; within 2.5 years after the last infusion): 90% | effect on IgG levels on the long term (IgG levels): leads to a reduction of IgG levels
